Reference: patent US20100322861A1, “ENGINEERED CELLS, IMAGING REPORT GENE/PROBE SYSTEMS, AND METHODS OF IMAGING” (priority 2007, published 2010)

Assays:
HSV1-tk expressing CTLs = assay: In vitro assays of Ganciclovir induced cell death of HSV1-tk expressing CTLs; format: cell-based, human; settings: previous in vitro assays
[1] = test system: cytolytic T cells expressing IL13 zetakine and HSV1-tk genes; assay: [18F]FHBG PET imaging of infused HSV1-tk expressing CTLs in a glioma patient; format: in vivo, human
Description: The CTLs were imaged with the PET reporter probe 9-[4-[^18F]Fluoro-3-(hydroxymethyl)butyl]guanine ([^18F]FHBG), because they constitutively express the PET reporter gene (PRG) HSV1-tk. (4) [^18F]FHBG is approved by the FDA as an investigational new drug (IND #61,880) for PET imaging at UCLA and Stanford University nuclear medicine clinics. UCLA's medical internal review board (M-IRB) has approved [^18F]FHBG PET imaging in normal volunteers, glioma patients and glioma patients who are enrolled in adoptive cellular gene therapy, when the infused cells express the PRG HSV1-tk. Stanford University's M-IRB has approved [^18F]FHBG PET imaging in glioma patients. COHNMC's M-IRB has approved referral of the patient's enrolled in the CTL therapy study for [^18F]FHBG PET imaging at UCLA.
254.62 MBq (6.88 mCi) [^18F]FHBG was injected through the other iv line (FDA limit 7 mCi). At approximately two-hours and fifteen minutes after [^18F]FHBG injection, the whole-body PET emission scan started from the patient's head to bottom, using an ECAT EXACT HR+PET scanner (CTI/Siemens, Inc., Knoxville, Tenn.). The whole-body scan consisted of 7 bed positions (7-minutes each). Three minute transmission scans followed each 7 minute emission scans. A two bed position head scan immediately followed completion of the whole-body scan. […] In addition, enhanced [^18F]FHBG accumulation was observed near the patient's corpus callosum. This indicates trafficking of infused CTLs to the remote corpus callosum tumor. The level of [^18F]FHBG accumulation is greater than what has been observed in control GBM patients who had tumor resections or intact tumors. Table 1 (FIG. 6) includes quantitative data of tumor to background ratios, comparing [^18F]FHBG accumulation levels of the CTL infused patient described in this example and control patients. Relative to similar controls, [^18F]FHBG accumulation is 2.6× higher in the patient's tumor resection site and 2.8× higher in the remote corpus callosum tumor site. […] Finally, a stereotactic biopsy of the left sided corpus callosum within a week of the [^18F]FHBG PET scan confirmed the presence of malignant disease infiltrated with CD8+ T cells.

[2] = in vivo, iv
Description: Two coronal slices are shown to illustrate activity within the liver, gall-bladder, intestines, kidneys and bladder, which are organs involved with [^18F]FHBG's clearance from the body.

HSV1-TK = assay: Cell culture uptake assay of [3H]Penciclovir into patient CTLs versus control Jurkat cells; format: cell-based, Herpes Simplex Virus 1; settings: about 1 μCi/ml, control Jurkat cells not expressing HSV1-tk
Description: FIG. 5 is a bar graph that illustrates the uptake of [^3H]Penciclovir into the genetically engineered CTL clone that was infused into the patient and control Jurkat cells. The autologous patient CTLs were genetically engineered to constitutively express HSV1-tk. The control cells expressed Firefly luciferase instead of HSV1-tk. […] The symbol “*” indicates significant difference between uptake of [^3H]PCV into patient CTLs vs control cells at 4 hours (P<0.001).
The patient of the present example received a total of approximately 1×10^9 CTLs within a five-week period of direct infusions (one week break between weeks 2 and 4). It is both possible that these cells proliferate or some die once injected into the patient. The number of cells present within the tumor resection site and the intact tumor near the corpus callosum could not be specifically quantified. That would require a pharmacokinetic model ((2004) J Nucl Med 45, 1560-1570, which is incorporated herein by reference) for [^18F]FHBG at brain tumor sites and knowing HSV1-tk expression levels per CTL at imaging time. […] This low level of activity explains why [^18F]FHBG accumulation in CTL infusion sites and intact tumor is only 2-3× higher than background. In fact during uptake assay cultured cells were exposed to a relatively constant concentration of about 1 μCi/ml; whereas assuming homogeneous distribution of [^18F]FHBG in 6 liters of blood, the maximum concentration CTLs would have been exposed to within the first 1-2 minutes after injection would have been about 1 μCi/ml, but then there is a rapid decline in blood concentration of [^18F]FHBG within the first 20-40 minutes following it's injection. Despite that, [^18F]FHBG's ability to detect the CTLs may be due to the low background within the surrounding brain tissue and the presence of a large number of CTLs.

With `Nc1nc(O)c2ncn(COC(CO)CO)c2n1` [Ganciclovir] as the compound, how does the “Ganciclovir induced cell death of CTLs” value (HSV1-tk expressing CTLs) read?
The value was “susceptibility to Ganciclovir induced cell death”.

Which “tumor 2/meninges [18F]FHBG activity ratio” value ([1]; CTL infused patient, non-resected tumor near corpus callosum, images approximately two hours after injection) does the source give for `Nc1nc2c(ncn2CCC(CO)C[18F])c(=O)[nH]1` (stereo not drawn) [[^18F]FHBG, 9-[4-[^18F]fluoro-3-(hydroxymethyl)butyl]guanine] here?
The value was 1.57.

And the “tumor 1/meninges [18F]FHBG activity ratio” value ([1]; CTL infused patient, surgically resected tumor site, images approximately two hours after injection)?
The value was 1.75.

What about the “[18F]FHBG accumulation versus background” value ([1]; CTL infusion sites and intact tumor) of the same compound?
Its value is 2-3 ×.

What about the “average intact tumor site to meninges [18F]FHBG activity ratio” value ([1]; control patients (no CTLs)) of the same compound?
Its value is 0.44.

What about the “average resected tumor site/meninges [18F]FHBG activity ratio” value ([1]; control patients (no CTLs)) of the same compound?
The value was 0.86.

And the “[18F]FHBG accumulation relative to similar controls” value ([1]; patient's tumor resection site)?
The value was 2.6 ×.

What about the “[18F]FHBG accumulation relative to similar controls” value ([1]; remote corpus callosum tumor site) of the same compound?
The value was 2.8 ×.

What about the “[18F]FHBG accumulation in the CTL infused patient versus control patients” value ([1]; resection site and intact tumor, quantitative analysis) of the same compound?
Its value is “greater than two times higher”.

What about the “clearance from tissues not involved in its clearance” value ([2]; human) of the same compound?
Its value is “clears very rapidly”.

What about the “time of rapid decline in blood concentration following injection” value [2] of the same compound?
Its value is 20 to 40 min.

Which results are given for [^3H]Penciclovir?
[3H]PCV uptake into CTL clone relative to control cells (HSV1-TK; 1 h): 2.7 ×; [3H]PCV uptake into CTL clone relative to control cells (HSV1-TK; 1 h, listed as [^3H]PCV): approximately 3 ×; [3H]PCV uptake into CTL clone relative to control cells (HSV1-TK; 4 h): 9.3 ×; [3H]PCV uptake into CTL clone relative to control cells (HSV1-TK; 4 h, listed as [^3H]PCV): ~9 ×
